Laboratory results from paper PMC6539903 (Molecules, 2019).

Assays:
[1] = system: SW620 xenografts tumor model; test: SW620 xenograft model in vivo; settings: nude mice, 20 mg/kg intraperitoneal every 2 days, start about 100 mm^3
Procedure: In view of potent cox-2 selective inhibitory activity and anti-colon cancer proliferation activity in vitro, compound 4b was further evaluated for anti-colon cancer activity in vivo. SW620 cells (5 × 10^6) were subcutaneously injected into the rightwing nude mice to establish a xenograft model. […]. Intraperitoneal administration was performed every 2 days and tumor volume changes were recorded for 12 consecutive days. […]. After 12 days of treatment, the tumor volumes of the two treatment groups were 43.71 mm^3 and 51.69 mm^3, respectively. Finally, the tumors of each group were removed and weighed to calculate the ratio of tumor weight to body weight. […] In contrast, body weight increased slightly in the vehicle group at the later stage of treatment (Figure 5C). […] This series of representative compounds 4b, as a selective COX-2 inhibitor for the targeted therapy of colon cancer, had prominent research prospect.
Nude mice aged 6-8 weeks were purchased from the model animal research center of nanjing university and bred in a specific non-pathogenic environment. A xenograft model was established by subcutaneous injection of SW620 cells […] DMEM into the right wing (18–22 g) of nude mice. […]. Vehicle treatment groups were treated with polyethylene glycol (containing 1% DMSO). […] After administration, weighed every two days and measured tumor volume with a vernier caliper. […]

[2] = system: SW620 cells; test: Cell apoptosis assay (Annexin V-FITC/PI flow cytometry); type: cell-based, human; settings: 24 h (0 μM: 7.9%)
Procedure: To confirm that antiproliferation activities of SW620 were associated with apoptosis, SW620 cell apoptosis induced by compound 4b was determined using flow cytometry with Annexin V-FITC/PI Apoptosis Detection Kit. […] The percentages of cell apoptosis 7.9%, 19.9%, 45.9%, and 65.0% were responding to the concentration of compound 4b 0 μM, 2.0 μM, 4.0 μM, and 8.0 μM, respectively.
SW620 cells were seeded in the 6-well plate ([…]) and treated with compound 4b to induce apoptosis at final concentrations of 0, 2, 4, and 8 μM for 24 h. After incubation, the cells were extracted with trypsin and washed with cold PBS twice. Cells are then bound to 500 μL buffer and then annexin-v/FITC (5 μL) and PI (5 μL) were added to the medium for another 10 min to incubate darkness. Staining cells were analyzed by flow cytometry (Becton Dickinson, Franklin, NJ, USA). Flowjo 7.6.1 software (Emerald Biotech Co. Ltd., Hangzhou, China) was used for statistical analysis.

[3] = molecular target: T1, COX-1 (Homo sapiens, UniProt P23219); test: COX-1 inhibition assay (COX-1 ELISA kit); type: biochemical; settings: mean of four determinations; read-out: IC50 ± SD COX-1
T1 construct: purchased Cayman Chemical 701170
Procedure: (§1) 3-(4,5-Dimethylthiazol-2-yl)-2,5-diphenyltetrazolium (MTT) were purchased from Beyotime Institute of Biotechnology (Haimen, China). Annexcin V-FITC cell apoptosis assay kit (catalog No.BA11100) was purchased from BIO-BOX (Nanjing, China). Fibronectin (#F1056) and laminin (#L2020) were purchased from Sigma-Aldrich (St. Louis, MO, USA).
(§2) Then 1 M HCl was added to the reaction mixture to stop the reaction, and one-tenth of the volume of saturated stannous chloride (50 mg/mL) was added. The reaction mixture was incubated at room temperature for 5 min, and PGF2 and PGH2 were produced.

[4] = MTT cytotoxicity assay, non-cancer colon cells; type: cell-based; settings: human, NCM460 colonic epithelial cells (non-cancer cell line), n = 3, non-cancer cell line, read-out: CC50 ± SD NUM460
Procedure: Besides, the MTT assay was performed on a non-cancer line NCM460 to assess the cytotoxicity of the test compound to normal colon cells.
(§3) MCF-7 (human breast cell line), HeLa (human cervical cell line), A549 (human lung cell line), HepG2 (human liver cell line), SW620 (human colorectal cell line) and a non-cancer cell line, NCM460 (Human colonic epithelial cells) were preserved at the State Key Laboratory of Pharmaceutical Biotechnology, Nanjing University (Nanjing, China).
(§4) The antiproliferative activity of the synthetic compounds against the SW620, MCF-7, HeLa, A549, HepG2, and NUM460 cell lines was evaluated by a colorimetric assay based on a modified standard (MTT). […] Thereafter, MTT (5 mg/mL in PBS) was added to each well and incubated for 4 h. 150 μL of DMSO was added to each well and shaken with a shaker. The absorbance (OD 570 nm) was read at 630 nm on an ELISA reader (ELx800, BioTek, montpelier, VT, USA). IC50 values for the compounds were calculated by comparison to DMSO treated control wells. Three replicate wells were used for each drug concentration. Each assay was performed three times.

[5] = system: SW620 cells; test: MTT antiproliferation assay, SW620; type: cell-based; settings: Homo sapiens, SW-620, 48 h, n = 3, read-out: IC50 ± SD SW620
Procedure: as §3, §4

[6] = system: A549; test: MTT antiproliferation assay, A549; type: cell-based; settings: Homo sapiens, 48 h, n = 3, read-out: IC50 ± SD A549
Procedure: as §3, §4

[7] = system: HeLa; test: MTT antiproliferation assay, HeLa; type: cell-based; settings: Homo sapiens, 48 h, n = 3, read-out: IC50 ± SD HeLa
Procedure: as §3, §4

[8] = system: HepG2; test: MTT antiproliferation assay, HepG2; type: cell-based; settings: Homo sapiens, 48 h, n = 3, read-out: IC50 ± SD HepG2
Procedure: as §3, §4

[9] = system: MCF-7; test: MTT antiproliferation assay, MCF-7; type: cell-based; settings: Homo sapiens, MCF7, 48 h, n = 3, read-out: IC50 ± SD MCF-7
Procedure: as §3, §4

[10] = molecular target: T2, COX-2 (Homo sapiens, UniProt P35354); test: COX-2 inhibition assay (COX-2 ELISA kit); type: biochemical
T2 construct: purchased Cayman Chemical 701180
T2 sequence (P35354 18-604): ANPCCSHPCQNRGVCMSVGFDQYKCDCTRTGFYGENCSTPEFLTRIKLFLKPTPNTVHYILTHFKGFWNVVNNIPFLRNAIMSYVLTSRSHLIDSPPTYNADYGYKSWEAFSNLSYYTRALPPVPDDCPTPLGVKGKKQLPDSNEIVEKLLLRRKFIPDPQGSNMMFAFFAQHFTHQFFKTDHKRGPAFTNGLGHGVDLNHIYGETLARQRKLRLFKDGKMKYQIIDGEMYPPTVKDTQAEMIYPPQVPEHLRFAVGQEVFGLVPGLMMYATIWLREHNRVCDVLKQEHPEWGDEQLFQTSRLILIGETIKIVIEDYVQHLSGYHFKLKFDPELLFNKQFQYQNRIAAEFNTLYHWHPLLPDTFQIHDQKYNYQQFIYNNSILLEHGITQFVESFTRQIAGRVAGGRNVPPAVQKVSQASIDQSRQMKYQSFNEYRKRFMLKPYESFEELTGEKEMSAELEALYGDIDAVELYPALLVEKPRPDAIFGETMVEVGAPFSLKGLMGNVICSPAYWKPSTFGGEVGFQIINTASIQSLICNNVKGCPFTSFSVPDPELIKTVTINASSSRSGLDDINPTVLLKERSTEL
Procedure: as §1, §2

T1 sequence (P23219 24-599): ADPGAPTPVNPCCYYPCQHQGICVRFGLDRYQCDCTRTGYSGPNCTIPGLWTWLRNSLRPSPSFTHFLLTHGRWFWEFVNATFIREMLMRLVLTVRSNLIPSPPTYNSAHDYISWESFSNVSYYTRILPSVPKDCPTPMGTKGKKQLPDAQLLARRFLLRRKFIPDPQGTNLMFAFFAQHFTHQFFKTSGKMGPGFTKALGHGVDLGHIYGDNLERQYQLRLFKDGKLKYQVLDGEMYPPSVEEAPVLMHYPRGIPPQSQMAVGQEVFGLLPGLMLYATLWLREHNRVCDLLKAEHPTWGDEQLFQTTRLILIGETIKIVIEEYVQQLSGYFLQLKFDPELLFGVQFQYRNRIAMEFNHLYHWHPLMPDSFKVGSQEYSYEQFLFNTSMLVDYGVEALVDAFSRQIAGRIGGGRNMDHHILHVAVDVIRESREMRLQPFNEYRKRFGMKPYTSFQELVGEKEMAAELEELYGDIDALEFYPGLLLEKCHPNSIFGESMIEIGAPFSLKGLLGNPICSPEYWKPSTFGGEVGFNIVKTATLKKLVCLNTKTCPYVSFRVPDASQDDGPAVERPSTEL

Compound | tumor volume after 12 days of treatment [1] | percentage of cell apoptosis ([2]; SW620, 2.0 μM) | percentage of cell apoptosis ([2]; SW620, 4.0 μM) | percentage of cell apoptosis ([2]; SW620, 8.0 μM) | IC50 [3] | CC50 at 48 h [4] | IC50 [5] | melting point | IC50 [6] | IC50 [7] | IC50 [8] | IC50 [9] | Selectivity Index (SI) (COX-1 IC50/COX-2 IC50) ([10]; in vitro COX-2 selectivity index) | IC50 ([10]; mean of four determinations, read-out: IC50 ± SD COX-2)
Cc1ccc(-c2cc(C(F)(F)F)nn2-c2ccc(S(N)(=O)=O)cc2)cc1 [Celecoxib, reference compound] | 51.69 mm^3 | – | – | – | – | – | – | – | – | – | – | – | – | –
Cc1ccc(C2=NN(c3ccc(S(N)(=O)=O)cc3)C(c3ccc4c(c3)OCO4)C2)cc1 (stereo not drawn) [Compound 4b, 4-(5-(Benzo[d][1,3]dioxol-5-yl)-3-(p-tolyl)-4,5-dihydro-1H-pyrazol-1-yl)benzenesulfonamide] | 43.71 mm^3 | 19.9% | 45.9% | 65.0% | 48060 ± 350 nM | 134000 ± 7850 nM | 860 ± 20 nM | 200 to 201 °C | 1940 ± 60 nM | 2980 ± 170 nM | 2960 ± 140 nM | 2990 ± 130 nM | 137.3 | 350 ± 20 nM
